Results taken from the supplement of paper PMC10307832.

What was measured:
Test in all cases: relative viability (nuclei count vs DMSO), 5 days (fraction); higher = more cells survive
[1] = compound: O=C(NCCCNc1nc(Nc2cccc(NC(=O)N3CCCC3)c2)ncc1I)c1cccs1 [BX 795]
Method in brief: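 Five library-drug doses, separated by factors of √10, were pinned into 1536-well plates holding lung cancer cell lines after an overnight stay at 37 °C. Cells were fixed, permeabilised and Hoechst-stained in one step after 5 days without medium change, then imaged at 4×. Viability compares treated-well with vehicle-well nuclei, counted in MetaXpress, as a median across plates. Passing plates had control CV below 25% and at least one doubling.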

[2] = compound: O=C(NCCCNc1nc(Nc2cccc(NC(=O)N3CCCC3)c2)ncc1I)c1cccs1 [BX 795] + CC(=O)Nc1cccc(-n2c(=O)n(C3CC3)c(=O)c3c(Nc4ccc(I)cc4F)n(C)c(=O)c(C)c32)c1 [Trametinib] (partner 0.02 µM)
Method in brief: (§1)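 Relative viability equals treated-well nuclei counts divided by vehicle-well nuclei counts. Counts came from 4× images of lung cancer cell lines grown in 1536-well plates for 5 days after pin-tool dosing on the day after seeding. Dosing used one drug alone or a fixed anchor-drug dose plus five library-drug doses (not always all listed) in √10 steps, and values are medians of duplicate plates.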

[3] = compound: O=C(NCCCNc1nc(Nc2cccc(NC(=O)N3CCCC3)c2)ncc1I)c1cccs1 [BX 795] + CC(=O)c1c(C)c2cnc(Nc3ccc(N4CCNCC4)cn3)nc2n(C2CCCC2)c1=O [Palbociclib] (partner 0.5 µM)
Method in brief: as §1

[4] = compound: O=C(NCCCNc1nc(Nc2cccc(NC(=O)N3CCCC3)c2)ncc1I)c1cccs1 [BX 795] + COc1cccc2cc(-c3nc([C@H]4CC[C@H](C(=O)O)CC4)n4ncnc(N)c34)[nH]c12 [OSI-027] (partner 0.5 µM)
Method in brief: as §1

[5] = compound: O=C(NCCCNc1nc(Nc2cccc(NC(=O)N3CCCC3)c2)ncc1I)c1cccs1 [BX 795] + Cc1cc(Nc2cc(N3CCN(C)CC3)nc(Sc3ccc(NC(=O)C4CC4)cc3)n2)n[nH]1 [Tozasertib] (partner 0.1 µM)
Method in brief: as §1

[6] = compound: O=C(NCCCNc1nc(Nc2cccc(NC(=O)N3CCCC3)c2)ncc1I)c1cccs1 [BX 795] + NC(=O)Nc1cc(-c2cccc(F)c2)sc1C(=O)N[C@H]1CCCNC1 [AZD7762] (partner 0.2 µM)
Method in brief: as §1

[7] = compound: O=C(NCCCNc1nc(Nc2cccc(NC(=O)N3CCCC3)c2)ncc1I)c1cccs1 [BX 795] + Nc1nc2[nH]cc(CCc3ccc(C(=O)N[C@@H](CCC(=O)O)C(=O)O)cc3)c2c(=O)[nH]1 [Pemetrexed] (partner 0.2 µM)
Method in brief: as §1

[8] = compound: O=C(NCCCNc1nc(Nc2cccc(NC(=O)N3CCCC3)c2)ncc1I)c1cccs1 [BX 795] + Nc1ncn([C@H]2C[C@H](O)[C@@H](CO)O2)c(=O)n1 [Decitabine] (partner 2 µM)
Method in brief: as §1

[9] = compound: O=C(NCCCNc1nc(Nc2cccc(NC(=O)N3CCCC3)c2)ncc1I)c1cccs1 [BX 795] + O=C(CCCCCCC(=O)Nc1ccccc1)NO [Vorinostat] (partner 1 µM)
Method in brief: as §1

[10] = compound: O=C(NCCCNc1nc(Nc2cccc(NC(=O)N3CCCC3)c2)ncc1I)c1cccs1 [BX 795] + O=C(c1cc(Cc2n[nH]c(=O)c3ccccc23)ccc1F)N1CCN(C(=O)C2CC2)CC1 [Olaparib] (partner 8 µM)
Method in brief: as §1

NCI-H1648
relative viability ([1]; 0.04 µM): 0.872
relative viability ([1]; 0.1265 µM): 0.804
relative viability ([1]; 0.4 µM): 0.972
relative viability ([1]; 1.265 µM): 1.01
relative viability ([2]; first compound 0.04 µM): 0.526
relative viability ([2]; first compound 0.1265 µM): 0.451
relative viability ([2]; first compound 0.4 µM): 0.575
relative viability ([2]; first compound 1.265 µM): 0.481
relative viability ([3]; first compound 0.04 µM): 0.267
relative viability ([3]; first compound 0.1265 µM): 0.264
relative viability ([3]; first compound 0.4 µM): 0.411
relative viability ([3]; first compound 1.265 µM): 0.299
relative viability ([4]; first compound 0.04 µM): 0.258
relative viability ([4]; first compound 0.1265 µM): 0.214
relative viability ([4]; first compound 0.4 µM): 0.265
relative viability ([4]; first compound 1.265 µM): 0.247
relative viability ([5]; first compound 0.04 µM): 0.611
relative viability ([5]; first compound 0.1265 µM): 0.466
relative viability ([5]; first compound 0.4 µM): 0.638
relative viability ([5]; first compound 1.265 µM): 0.378
relative viability ([6]; first compound 0.04 µM): 0.833
relative viability ([6]; first compound 0.1265 µM): 0.756
relative viability ([6]; first compound 0.4 µM): 0.791
relative viability ([6]; first compound 1.265 µM): 0.911
relative viability ([7]; first compound 0.04 µM): 0.727
relative viability ([7]; first compound 0.1265 µM): 0.824
relative viability ([7]; first compound 0.4 µM): 0.834
relative viability ([7]; first compound 1.265 µM): 1.02
relative viability ([8]; first compound 0.04 µM): 0.584
relative viability ([8]; first compound 0.1265 µM): 0.442
relative viability ([8]; first compound 0.4 µM): 0.523
relative viability ([8]; first compound 1.265 µM): 0.616
relative viability ([9]; first compound 0.04 µM): 0.441
relative viability ([9]; first compound 0.1265 µM): 0.525
relative viability ([9]; first compound 0.4 µM): 0.668
relative viability ([9]; first compound 1.265 µM): 0.535
relative viability ([10]; first compound 0.04 µM): 0.869
relative viability ([10]; first compound 0.1265 µM): 1.51
relative viability ([10]; first compound 0.4 µM): 1.15
relative viability ([10]; first compound 1.265 µM): 1.11
